Test results as given in patent publication US9586951B2 (FUJIFILM Corporation, priority 2013, dated 2017).

These compounds were tested against T1, ATM (Homo sapiens, UniProt Q13315) (assay: ATM inhibition test (phosphorylation of Chk2 generated by ionizing radiation, AlphaScreen SureFire)). Conditions: ATM inhibitory activity, phosphorylated Chk2 in NCI-H460 cells, ionizing radiation 8Gy, 1 hour after test compound treatment.
T1 construct: detecting phosphorylation of Chk2 in a human non-small cell lung cancer cell line NCI-H460 (ATCC company); host or cells: NCI-H460 human non-small cell lung cancer cells
Format: cell-based
Method in brief: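 Human NCI-H460 lung cancer cells were treated with compound for 1 h, then irradiated at 8Gy and incubated 1 h at 37° C. Phospho-Chk2 was quantified by AlphaScreen SureFire; inhibition % was normalised between irradiated untreated and non-irradiated untreated wells.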

T1 sequence (Q13315 whole entry): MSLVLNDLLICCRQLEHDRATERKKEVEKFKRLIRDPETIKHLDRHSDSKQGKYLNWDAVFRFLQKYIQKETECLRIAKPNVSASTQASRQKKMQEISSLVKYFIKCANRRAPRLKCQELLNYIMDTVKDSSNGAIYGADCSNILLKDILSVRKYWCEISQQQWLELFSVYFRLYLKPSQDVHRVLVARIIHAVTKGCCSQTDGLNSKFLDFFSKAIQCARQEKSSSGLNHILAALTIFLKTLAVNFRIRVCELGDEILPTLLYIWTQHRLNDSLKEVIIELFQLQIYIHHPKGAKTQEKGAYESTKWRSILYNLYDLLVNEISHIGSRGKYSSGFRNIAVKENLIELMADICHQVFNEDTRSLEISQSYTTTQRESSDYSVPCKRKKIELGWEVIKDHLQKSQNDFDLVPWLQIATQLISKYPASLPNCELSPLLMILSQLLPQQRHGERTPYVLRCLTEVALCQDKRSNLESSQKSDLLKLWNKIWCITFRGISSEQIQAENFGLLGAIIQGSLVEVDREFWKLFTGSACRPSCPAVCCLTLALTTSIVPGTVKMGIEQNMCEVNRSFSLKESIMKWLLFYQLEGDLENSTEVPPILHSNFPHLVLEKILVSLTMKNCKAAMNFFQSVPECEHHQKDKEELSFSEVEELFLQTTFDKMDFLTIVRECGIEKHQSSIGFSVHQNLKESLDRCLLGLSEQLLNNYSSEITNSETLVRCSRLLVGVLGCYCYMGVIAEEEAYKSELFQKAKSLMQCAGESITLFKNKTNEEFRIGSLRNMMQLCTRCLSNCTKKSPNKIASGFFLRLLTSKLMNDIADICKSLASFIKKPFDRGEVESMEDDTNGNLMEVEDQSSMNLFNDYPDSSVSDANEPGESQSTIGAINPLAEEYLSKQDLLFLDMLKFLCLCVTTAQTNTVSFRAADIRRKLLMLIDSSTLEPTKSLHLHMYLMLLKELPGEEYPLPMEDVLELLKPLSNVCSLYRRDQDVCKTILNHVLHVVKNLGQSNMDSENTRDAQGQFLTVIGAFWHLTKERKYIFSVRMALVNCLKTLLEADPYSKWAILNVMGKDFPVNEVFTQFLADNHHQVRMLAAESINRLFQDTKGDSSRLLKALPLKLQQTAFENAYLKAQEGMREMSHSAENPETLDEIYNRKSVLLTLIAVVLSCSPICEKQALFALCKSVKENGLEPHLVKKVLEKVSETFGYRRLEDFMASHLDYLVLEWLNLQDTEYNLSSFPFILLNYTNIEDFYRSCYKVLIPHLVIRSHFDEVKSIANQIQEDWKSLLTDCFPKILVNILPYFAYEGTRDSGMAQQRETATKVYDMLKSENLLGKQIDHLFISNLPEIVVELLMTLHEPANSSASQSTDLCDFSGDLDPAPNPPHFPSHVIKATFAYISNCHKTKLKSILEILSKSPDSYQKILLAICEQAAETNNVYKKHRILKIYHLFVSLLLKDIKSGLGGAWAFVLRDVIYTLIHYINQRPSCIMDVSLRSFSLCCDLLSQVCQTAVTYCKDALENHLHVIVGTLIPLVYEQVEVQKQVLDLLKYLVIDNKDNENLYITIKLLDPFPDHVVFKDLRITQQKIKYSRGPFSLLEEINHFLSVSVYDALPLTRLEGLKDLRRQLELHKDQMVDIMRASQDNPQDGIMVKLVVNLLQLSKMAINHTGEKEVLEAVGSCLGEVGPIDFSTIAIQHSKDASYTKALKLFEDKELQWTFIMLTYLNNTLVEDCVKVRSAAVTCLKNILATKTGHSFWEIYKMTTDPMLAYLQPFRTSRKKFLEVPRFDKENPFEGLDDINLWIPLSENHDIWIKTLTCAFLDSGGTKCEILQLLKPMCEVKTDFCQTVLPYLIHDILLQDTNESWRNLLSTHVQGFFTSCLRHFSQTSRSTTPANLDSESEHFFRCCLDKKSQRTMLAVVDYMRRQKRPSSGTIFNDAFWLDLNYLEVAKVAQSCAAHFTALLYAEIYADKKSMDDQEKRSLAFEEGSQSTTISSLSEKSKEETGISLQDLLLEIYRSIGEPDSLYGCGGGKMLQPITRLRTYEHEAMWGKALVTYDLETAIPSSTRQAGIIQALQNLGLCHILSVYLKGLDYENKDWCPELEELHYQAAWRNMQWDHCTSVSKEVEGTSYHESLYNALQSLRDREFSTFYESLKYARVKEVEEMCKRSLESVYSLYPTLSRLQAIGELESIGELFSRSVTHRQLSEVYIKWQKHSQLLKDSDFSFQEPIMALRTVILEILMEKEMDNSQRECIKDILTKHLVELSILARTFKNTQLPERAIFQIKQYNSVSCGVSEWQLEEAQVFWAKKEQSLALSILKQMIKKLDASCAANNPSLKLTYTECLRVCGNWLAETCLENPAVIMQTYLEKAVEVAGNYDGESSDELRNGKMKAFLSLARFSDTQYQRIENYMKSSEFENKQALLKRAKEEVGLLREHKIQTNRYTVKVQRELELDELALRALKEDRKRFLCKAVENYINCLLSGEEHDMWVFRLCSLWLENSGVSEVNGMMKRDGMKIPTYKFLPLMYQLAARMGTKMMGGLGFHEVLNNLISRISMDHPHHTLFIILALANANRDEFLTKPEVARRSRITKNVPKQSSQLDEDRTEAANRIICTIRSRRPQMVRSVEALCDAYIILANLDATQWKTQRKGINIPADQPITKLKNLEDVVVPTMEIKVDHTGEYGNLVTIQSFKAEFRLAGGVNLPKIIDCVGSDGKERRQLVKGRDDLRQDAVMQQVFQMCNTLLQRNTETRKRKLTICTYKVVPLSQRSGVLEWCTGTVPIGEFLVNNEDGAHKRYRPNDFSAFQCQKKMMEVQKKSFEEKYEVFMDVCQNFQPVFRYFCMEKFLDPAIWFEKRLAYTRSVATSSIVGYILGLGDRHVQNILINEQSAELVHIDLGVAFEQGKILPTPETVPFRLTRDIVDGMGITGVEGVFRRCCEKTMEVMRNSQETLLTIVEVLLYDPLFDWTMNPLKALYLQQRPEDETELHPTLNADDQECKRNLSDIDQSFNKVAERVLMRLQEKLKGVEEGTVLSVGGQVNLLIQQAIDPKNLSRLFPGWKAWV

Row | Compound | IC50 [nM]
1 | O=c1cc(N2CCOCC2)cc(-c2cccc3c2Sc2ccc(N4CC4CN4CCOCC4)cc2S3)[nH]1 (stereo not drawn) [Example 1-38, 4-morpholino-6-(7-(2-(morpholinomethyl)aziridin-1-yl)thianthren-1-yl)pyridin-2(1H)-one] | 100 to 500

Same assay, conditions: phosphorylated Chk2 in NCI-H460 cells, ionizing radiation 8Gy, 1 hour after test compound treatment; read-out: ATM inhibitory activity

Row | IC50 [nM] | Compound
2 | 500 to 2000 | Cn1c(CNc2ccc3c(c2)Cc2cccc(-c4cc(N5CCOCC5)cc(=O)[nH]4)c2O3)cccc1=O [Example 2-2-47, 1-Methyl-6-(((5-(4-morpholino-6-oxo-1,6-dihydropyridin-2-yl)-9H-xanthen-2-yl)amino)methyl) pyridin-2(1H)-one]
3 | 100 to 500 | Cc1ccnc(C(C)Nc2ccc3c(c2)Cc2cccc(-c4cc(N5CCOCC5)cc(=O)[nH]4)c2O3)c1 (single isomer, unassigned) [Example 2-14-93-1, 6-(7-((1-(4-methylpyridin-2-yl)ethyl)amino)-9H-xanthen-4-yl)-4-morpholinopyridin-2(1H)-one]
4 | 100 to 500 | CN(C)c1nccc(CN2CCC(Nc3ccc4c(c3)Cc3cccc(-c5cc(N6CCOCC6)cc(=O)[nH]5)c3O4)CC2)n1 [Example 2-28-16, 6-(7-((1-((2-(Dimethylamino)pyrimidin-4-yl)methyl)piperidin-4-yl)amino)-9H-xanthen-4-yl)-4-morpholino pyridin-2(1H)-one]
5 | 100 to 500 | O=c1cc(N2CCOCC2)cc(-c2cccc3c2Sc2ccc(NCCN4CCCOCC4)cc2S3)[nH]1 [Example 1-10-6, 6-(7-((2-(1,4-Oxazepan-4-yl)ethyl)amino)thianthren-1-yl)-4-morpholinopyridin-2(1H)-one]
6 | 100 to 500 | CN(C)C1CCN(c2cccc(CNc3ccc4c(c3)Sc3cccc(-c5cc(N6CCOCC6)cc(=O)[nH]5)c3S4)n2)C1 (stereo not drawn) [Example 1-12-35, 6-(7-(((6-(3-(Dimethylamino)pyrrolidin-1-yl)pyridin-2-yl)methyl)amino)thianthren-1-yl)-4-morpholino pyridin-2 (1H)-one]
7 | 100 to 500 | CCC(Nc1ccc2c(c1)Sc1cccc(-c3cc(N4CCOCC4)cc(=O)[nH]3)c1S2)[C@@H](N)CC (stereo partly drawn) [Example 1-20-6, 6-(7-(((4S)-4-Aminohexan-3-yl)amino)thianthren-1-yl)-4-morpholino pyridin-2(1H)-one]
8 | 100 to 500 | CN(C)[C@H](CNc1ccc2c(c1)Sc1cccc(-c3cc(N4CCOCC4)cc(=O)[nH]3)c1S2)Cc1ccccc1 [Example 1-2-2, (S)-6-(7-((2-(dimethylamino)-3-phenylpropyl)amino)thianthren-1-yl)-4-morpholinopyridin-2(1H)-one]
9 | 100 to 500 | Cc1cccc(CNc2ccc3c(c2)Cc2cccc(-c4cc(N5CCOCC5)cc(=O)[nH]4)c2O3)n1 [Example 2-2-24, 6-(7-(((6-Methylpyridin-2-yl)methyl)amino)-9H-xanthen-4-yl)-4-morpholino pyridin-2(1H)-one]
10 | < 100 | COCCN1CCOC(C(Nc2ccc3c(c2)Sc2cccc(-c4cc(N5CCOCC5)cc(=O)[nH]4)c2S3)c2ccc(C)cn2)C1 (single isomer, unassigned) [Example 1-56-9, 6-(7-(((4-(2-Methoxyethyl)morpholin-2-yl)(5-methylpyridin-2-yl)methyl)amino)thianthren-1-yl)-4-morpholino pyridin-2(1H)-one]
11 | 100 to 500 | CC(C)(C)OC(=O)N1CCC(Nc2ccc3c(c2)Sc2cccc(-c4cc(N5CCOCC5)cc(=O)[nH]4)c2O3)CC1 [Example 4-8-3, tent-Butyl 4-((6-(4-morpholino-6-oxo-1,6-dihydropyridin-2-yl)phenoxathiin-2-yl)amino) piperidin-l-carboxylate]
12 | < 100 | Cc1ccc(C(Nc2ccc3c(c2)Sc2cccc(-c4cc(N5CCOCC5)cc(=O)[nH]4)c2S3)C2CCN(CC(F)F)CC2)nc1 (stereo not drawn) [Example 1-58, 6-(7-(((1-(2,2-difluoroethyl)piperidin-4-yl)(5-methylpyridin-2-yl)methyl)amino)thianthren-1-yl)-4-morpholinopyridin-2(1H)-one]
13 | 500 to 2000 | O=c1cc(N2CCOCC2)cc(-c2cccc3c2Oc2ccc(NCc4cncs4)cc2C3)[nH]1 [Example 2-14-37, 4-Morpholino-6-(7-((thiazol-5-ylmethyl)amino)-9H-xanthen-4-yl) pyridin-2(1H)-one]
14 | < 100 | Cc1ccc(C(CCN(C)CCN(C)C)Nc2ccc3c(c2)Sc2cccc(-c4cc(N5CCOCC5)cc(=O)[nH]4)c2S3)nc1 (single isomer, unassigned) [Example 10-5-1, 6-(7-((3-((2-(Dimethylamino)ethyl)(methyl)amino)-1-(5-methylpyridin-2-yl)propyl)amino)thianthren-1-yl)-4-morpholinopyridin-2(1H)-one]
15 | 500 to 2000 | Nc1ccc2c(c1)CCc1cccc(-c3cc(N4CCOCC4)cc(=O)[nH]3)c1O2 [Example 2-50, 6-(8-Amino-10,11-dihydrodibenz[b,f]oxepin-4-yl)-4-morpholinopyridin-2(1H)-one]
16 | 100 to 500 | N#Cc1ccnc(CNc2ccc3c(c2)Cc2ccnc(-c4cc(N5CCOCC5)cc(=O)[nH]4)c2O3)c1 [Example 2-41-16, 2-(((1-(4-Morpholino-6-oxo-1,6-dihydropyridin-2-yl)-5H-chromeno[2,3-c]pyridin-7-yl)amino)methyl)isonicotinonitrile]
17 | 100 to 500 | O=c1cc(N2CCOCC2)cc(-c2cccc3c2Oc2ccc(NCc4cnc5c(c4)OCO5)cc2C3)[nH]1 [Example 2-2-30, 6-(7-(([1,3]Dioxolo[4,5-b]pyridin-6-ylmethyl)amino)-9H-xanthen-4-yl)-4-morpholino pyridin-2(1H)-one]

Row | IC50 [nM] | Compound
18 | 100 to 500 | Cc1cncc(C(C)Nc2ccc3c(c2)Cc2cccc(-c4cc(N5CCOCC5)cc(=O)[nH]4)c2O3)c1 (stereo not drawn) [Example 2-14-22, 6-(7-((1-(5-Methylpyridin-3-yl)ethyl)amino)-9H-xanthen-4-yl)-4-morpholino pyridin-2(1H)-one]
19 | 100 to 500 | CC(Nc1ccc2c(c1)Sc1cccc(-c3cc(N4CCOCC4)cc(=O)[nH]3)c1S2)C(=O)N1CCCC1 (stereo not drawn) [Example 1-18-4]
20 | 100 to 500 | O=c1cc(N2CCOCC2)cc(-c2cccc3c2Oc2ccc(NCc4ccco4)cc2C3)[nH]1 [Example 2-14-33, 6-(7-((Furan-2-ylmethyl)amino)-9H-xanthen-4-yl)-4-morpholino pyridin-2(1H)-one]
21 | 500 to 2000 | Nc1ccc2c(c1)Cc1cccc(-c3cc(N4CCOCC4)cc(=O)[nH]3)c1O2 [Example 2-1-1, 5-6-(7-amino-9H-xanthen-4-yl)-4-morpholinopyridin-2(1H)-one]
22 | 500 to 2000 | O=c1cc(N2CCOCC2)cc(-c2cccc3c2Oc2ccc(NCc4ccncc4)cc2CC3)[nH]1 [Example 2-51-3, 4-Morpholino-6-(8-((pyridin-4-ylmethyl)amino)-10,11-dihydrodibenz[b,f]oxepin-4-yl)pyridin-2(1H)-one]
23 | 500 to 2000 | COc1cccc(CNc2ccc3c(c2)Cc2ccnc(-c4cc(N5CCOCC5)cc(=O)[nH]4)c2O3)n1 [Example 2-42-7, 6-(7-(((6-Methoxypyridin-2-yl)methyl)amino)-5H-chromeno[2,3-c]pyridin-1-yl)-4-morpholinopyridin-2(1H)-one]
24 | 500 to 2000 | CC(Nc1ccc2c(c1)Cc1cccc(-c3cc(N4CCOCC4)cc(=O)[nH]3)c1O2)c1ccncn1 (stereo not drawn) [Example 2-14-50, 4-Morpholino-6-(7-((1-(pyrimidin-4-yl)ethyl)amino)-9H-xanthen-4-yl) pyridin-2(1H)-one]
25 | 100 to 500 | CN(C)CCNc1ccc2c(c1)Sc1cccc(-c3cc(N4CCOCC4)cc(=O)[nH]3)c1S2 [Example 1-10-4, 6-(7-((2-(Dimethylamino)ethyl)amino)thianthren-1-yl)-4-morpholinopyridin-2(1H)-one]
26 | 100 to 500 | CN1CCC(Nc2ccc3c(c2)Cc2cccc(-c4cc(N5CCOCC5)cc(=O)[nH]4)c2S3)CC1 [Example 3-8-13, 6-(7-((1-Methylpiperidin-4-yl)amino)-9H-thioxanthen-4-yl)-4-morpholino pyridin-2 (1H)-one]
27 | 100 to 500 | Cc1nccnc1CNc1ccc2c(c1)Sc1cccc(-c3cc(N4CCOCC4)cc(=O)[nH]3)c1S2 [Example 1-12-61, 6-(7-(((3-Methylpyrazin-2-yl)methyl)amino)thianthren-1-yl)-4-morpholino pyridin-2 (1H)-one]
28 | 100 to 500 | O=c1cc(N2CCOCC2)cc(-c2cccc3c2Oc2ccc(NC4CCN(CC5CCCCC5)CC4)cc2C3)[nH]1 [Example 2-28-35, 6-(7-((1-(Cyclohexylmethyl)piperidin-4-yl)amino)-9H-xanthen-4-yl)-4-morpholino pyridin-2(1H)-one]
29 | 100 to 500 | CC(Nc1ccc2c(c1)Cc1cccc(-c3cc(N4CCOCC4)cc(=O)[nH]3)c1O2)c1cc(CF)ncn1 (stereo not drawn) [Example 2-14-65, 6-(7-((1-(6-(Fluoromethyl)pyrimidin-4-yl)ethyl)amino)-9H-xanthen-4-yl)-4-morpholino pyridin-2(1H)-one]
30 | 100 to 500 | CNCc1ccnc(C(C)Nc2ccc3c(c2)Sc2cccc(-c4cc(N5CCOCC5)cc(=O)[nH]4)c2S3)n1 (stereo not drawn) [Example 1-20-1, 6-(7-((1-(4-((methylamino)methyl)pyrimidin-2-yl)ethyl)amino)thianthren-1-yl)-4-morpholinopyridin-2(1H)-one]
31 | 100 to 500 | COc1ccnc(C(C)Nc2ccc3c(c2)Cc2ccnc(-c4cc(N5CCOCC5)cc(=O)[nH]4)c2O3)c1 (stereo not drawn) [Example 2-41-14]
32 | 500 to 2000 | COc1ccncc1CNc1ccc2c(c1)Cc1cccc(-c3cc(N4CCOCC4)cc(=O)[nH]3)c1O2 [Example 2-2-34, 6-(7-(((4-Methoxypyridin-3-yl)methyl)amino)-9H-xanthen-4-yl)-4-morpholino pyridin-2(1H)-one]
33 | 100 to 500 | CC(=O)Nc1ccc(CCN2CCC(Nc3ccc4c(c3)Cc3cccc(-c5cc(N6CCOCC6)cc(=O)[nH]5)c3O4)CC2)cc1 [Example 2-32, N-(4-(2-(4-((5-(4-morpholino-6-oxo-1,6-dihydropyridin-2-yl)-9H-xanthen-2-yl)amino)piperidin-1-yl)ethyl)phenyl)acetamide]
